Usually logP stands for the decadic logarithm of the partition coefficient of the neutral form, usually between octanol and water.

Drawing on ChEMBL document CHEMBL1141899, “QSAR studies on 1,2-dithiole-3-thiones: modeling of lipophilicity, quinone reductase specific activity, and production of growth hormone” (Bioorg Med Chem Lett, 2005), this text covers Log CDQR and logP for 18 molecules.

The structures appear in SMILES notation.

Data set [1] addresses NAD(P)H dehydrogenase [quinone] 1 (Homo sapiens) (UniProt P15559).
Description: Increased quinone reductase specific activity
Another data set is described as follows: physchem. The settings on record: octanol/water.

Chain of NAD(P)H dehydrogenase [quinone] 1 (Homo sapiens) (P15559 whole entry): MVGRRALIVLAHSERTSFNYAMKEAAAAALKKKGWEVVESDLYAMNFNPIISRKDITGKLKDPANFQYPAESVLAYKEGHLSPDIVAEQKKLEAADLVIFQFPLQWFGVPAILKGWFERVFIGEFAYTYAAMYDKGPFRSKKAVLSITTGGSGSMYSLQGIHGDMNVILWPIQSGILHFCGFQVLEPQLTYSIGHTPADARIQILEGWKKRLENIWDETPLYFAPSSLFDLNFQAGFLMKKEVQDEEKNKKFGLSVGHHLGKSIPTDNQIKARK
Description for physchem: Partition coefficient (logP)

In the case of `CCc1cc(=S)ss1`, the Log CDQR in data set [1] is 0.903. As for `O=C(O)c1cc(=S)ss1`, the logP in the data set “physchem” amounted to 1.05. For the same molecule, in data set [1], the Log CDQR came out at 1.9. On the same counts, the results for `S=C1CC(c2cc(=S)ss2)SS1` (configuration not stated) are 1.8 and 0.342. With `S=c1ccss1`, the Log CDQR in data set [1] was found to be 0.176. The same measure, in the same setting: the figure for `Cc1ssc(=S)c1C` is 1.34. The same measure, in the same setting: the figure for `S=c1sscc1-c1ccccc1` is 0.301; for `COc1ccc(-c2cc(=S)ss2)cc1` it is 1.25. Take `Cc1c(-c2cnccn2)ssc1=S` [OLTIPRAZ]: in the data set “physchem”, the logP is 2.79. This molecule came in with a Log CDQR in data set [1] of 1.34. As to `CCc1cssc1=S`, the Log CDQR in data set [1] came to 0.903. In the data set “physchem”, `NC(=O)c1cc(=S)ss1` came in with a logP of 0.01. The molecule also came in with a Log CDQR in data set [1] of 1.3. Molecule `Cc1cssc1=S` gave a Log CDQR in data set [1] of 1.08. For `S=c1cc(-c2ccccc2)ss1`, the Log CDQR in data set [1] was found to be 1.3. As to `COc1ccc(-c2ssc(=S)c2C)cc1`, the Log CDQR in data set [1] was found to be 1.58.

Consider `NC(=O)c1cssc1=S`, for which, in the data set “physchem”, the logP turned out to be 0.3. In data set [1], the Log CDQR stood at 1.66. The matching figures for `S=c1ssc2c1CCCCCCCC2`: 2.53 and -0.602. Turning to `Cc1cc(=S)ss1`, the logP in the data set “physchem” was determined as 1.85. Besides, in data set [1], the Log CDQR is 1.23. On the same counts, the results for `CC(C)(C)c1cc(=S)ss1` are 3.25 and 0.699.

For the molecule `O=C(O)c1cssc1=S`, in the data set “physchem”, the logP was 1.33. In addition, the Log CDQR in data set [1] was 1.38.
